The results in this text go back to US20240074968A1, “ORAL PHARMACEUTICAL COMPOSITION AND METHOD FOR PRODUCING PARTICULATE FORMULATION COMPRISING COMPOSITION” (Sunsho Pharmaceutical Co., Ltd., priority 2016, published 2024).

This series in a line: Solubility in water at 20° C. It is filed as physicochemical. The source says: The above hydrophobic liquid (B) is a hydrophobic liquid that can dissolve or disperse well the above active ingredient (A) and is not a surfactant. In this case, the “hydrophobicity” of this hydrophobic liquid (B) should disperse as liquid particles containing the active ingredient (A), without dissolving into the water-based composition containing the water-soluble polymer substance (C) and the excipient (D) described below. […] When this “hydrophobicity” is insufficient, it becomes difficult to remain dispersed in the composition while containing the above active ingredient (A), and all or much of the active ingredient (A) becomes contained in the composition as crystals, which makes it impossible to achieve the purpose of the present invention.

For `CC(O)CO` (stereo not shown) [propylene glycol], the “solubility in water at 20° C.” value is “exceeding 10 mass %”.
